From patent US11149030B2, “Plants having increased tolerance to herbicides” (BASF AGRO B.V., priority 2016, dated 2021)
“And” between values parts separate entries of the source, which are not always exact repeats. Equal values may be shown once.

Test system: T2 soybean events expressing the indicated Amaranthus PPO2 variant transgene
Assay: Soybean PPO inhibitor tolerance testing, injury score (Table C)
Type: in vivo, Soybean cv Jake
Details: V2 stage, 3 days after treatment, individual plants
Protocol: Soybean cv Jake is transformed as previously described by Siminszky et al., Phytochem Rev. 5:445-458 (2006). After regeneration, transformants are transplanted to soil in small pots, placed in growth chambers (16 hr day/8 hr night; 25° C. day/23° C. night; 65% relative humidity; 130-150 microE m-2 s-1) and subsequently tested for the presence of the T-DNA via Taqman analysis. After a few weeks, healthy, transgenic positive, single copy events are transplanted to larger pots and allowed to grow in the growth chamber. An optimal shoot for cutting is about 3-4 inches tall, with at least two nodes present. Each cutting is taken from the original transformant (mother plant) and dipped into rooting hormone powder (indole-3-butyric acid, IBA). The cutting is then placed in oasis wedges inside a bio-dome. The mother plant is taken to maturity in the greenhouse and harvested for seed. Wild type cuttings are also taken simultaneously to serve as negative controls. The cuttings are kept in the bio-dome for 5-7 days and then transplanted to 3 inch pots and then acclimated in the growth chamber for two more days. Subsequently, the cuttings are transferred to the greenhouse, acclimated for approximately 4 days prior to spray. […] g ai/ha saflufenacil plus 1% MSO and/or 25-200 g ai/ha 1,5-dimethyl-6-thioxo-3-(2,2,7-trifluoro-3-oxo-4-(prop-2-ynyl)-3,4-dihydro-2H-benzo[b][1,4]oxazin-6-yl)-1,3,5-triazinane-2,4-dione (CAS 1258836-72-4) plus 1% MSO. Other PPO inhibiting herbicides are also tested in a similar fashion for confirming cross resistance: flumioxazin, butafenacil, acifluorfen, lactofen, bifenox, sulfentrazone, methyl 2-[2-chloro-5-[3-chloro-5-(trifluoromethyl)-2-pyridyl]-4-fluoro-phenoxy]-2-methoxy-acetate, ethyl 2-[2-chloro-5-[3-chloro-5-(trifluoromethyl)-2-pyridyl]-4-fluoro-phenoxy]-2-methoxy-acetate, prop-2-ynyl 2-[2-chloro-5-[3-chloro-5-(trifluoromethyl)-2-pyridyl]-4-fluoro-phenoxy]-2-methoxy-acetate and photosynthesis inhibitor diuron as negative control. […]
The following gives a definition of the injury scores measured above: […]

[1] = soybean T2, transgene L397E_F420M, 25 g ai/ha + 1% v/v MSO
[2] = soybean T2, transgene L397E_F420M, 50 g ai/ha + 1% v/v MSO
[3] = soybean T2, transgene L397E_F420M, 100 g ai/ha + 1% v/v MSO
[4] = soybean T2, transgene L397E_F420M, 200 g ai/ha + 1% v/v MSO
[5] = soybean T2, transgene L397Q_F420M, 25 g ai/ha + 1% v/v MSO
[6] = soybean T2, transgene L397Q_F420M, 50 g ai/ha + 1% v/v MSO
[7] = soybean T2, transgene L397Q_F420M, 100 g ai/ha + 1% v/v MSO
[8] = soybean T2, transgene L397Q_F420M, 200 g ai/ha + 1% v/v MSO
[9] = soybean T2, transgene R128A_F420I event 1, 25 g ai/ha + 1% v/v MSO
[10] = soybean T2, transgene R128A_F420I event 1, 50 g ai/ha + 1% v/v MSO
[11] = soybean T2, transgene R128A_F420I event 1, 100 g ai/ha + 1% v/v MSO
[12] = soybean T2, transgene R128A_F420I event 1, 200 g ai/ha + 1% v/v MSO
[13] = soybean T2, transgene R128A_F420I event 2, 25 g ai/ha + 1% v/v MSO
[14] = soybean T2, transgene R128A_F420I event 2, 50 g ai/ha + 1% v/v MSO
[15] = soybean T2, transgene R128A_F420I event 2, 100 g ai/ha + 1% v/v MSO
[16] = soybean T2, transgene R128A_F420I event 2, 200 g ai/ha + 1% v/v MSO
[17] = soybean T2, transgene R128A_F420I event 3, 25 g ai/ha + 1% v/v MSO
[18] = soybean T2, transgene R128A_F420I event 3, 50 g ai/ha + 1% v/v MSO
[19] = soybean T2, transgene R128A_F420I event 3, 100 g ai/ha + 1% v/v MSO
[20] = soybean T2, transgene R128A_F420I event 3, 200 g ai/ha + 1% v/v MSO
[21] = soybean T2, transgene R128A_F420V, 25 g ai/ha + 1% v/v MSO
[22] = soybean T2, transgene R128A_F420V, 50 g ai/ha + 1% v/v MSO
[23] = soybean T2, transgene R128A_F420V, 100 g ai/ha + 1% v/v MSO
[24] = soybean, Non transgenic, 25 g ai/ha + 1% v/v MSO
[25] = soybean, Non transgenic, 50 g ai/ha + 1% v/v MSO
[26] = soybean, Non transgenic, 100 g ai/ha + 1% v/v MSO
[27] = soybean, Non transgenic, 200 g ai/ha + 1% v/v MSO

## CCOC(=O)C(OC)Oc1cc(-c2ncc(C(F)(F)F)cc2Cl)c(F)cc1Cl (stereo not shown) [ethyl 2-[2-chloro-5-[3-chloro-5-(trifluoromethyl)-2-pyridyl]-4-fluoro-phenoxy]-2-methoxy-acetate]
[1]
  injury on a 0-9 point scale: 0 (2×) and 9
[2]
  injury on a 0-9 point scale: 0 (2×) and 2
[3]
  injury on a 0-9 point scale: 3 (2×) and 9
[4]
  injury on a 0-9 point scale: 4 and 3 and 5
[5]
  injury on a 0-9 point scale: 1 and 9
[6]
  injury on a 0-9 point scale: 9 and 3 and 2
[7]
  injury on a 0-9 point scale: 2
[8]
  injury on a 0-9 point scale: 2 and 9
[9]
  injury on a 0-9 point scale: 0 (2×) and 1
[10]
  injury on a 0-9 point scale: 0 (2×) and 1
[11]
  injury on a 0-9 point scale: 4
[12]
  injury on a 0-9 point scale: 4 (2×) and 5
[13]
  injury on a 0-9 point scale: 2 and 5 and 1
[14]
  injury on a 0-9 point scale: 1 and 2
[15]
  injury on a 0-9 point scale: 5 and 9
[16]
  injury on a 0-9 point scale: 7 and 4 (2×)
[17]
  injury on a 0-9 point scale: 1
[18]
  injury on a 0-9 point scale: 1
[19]
  injury on a 0-9 point scale: 3 and 2
[20]
  injury on a 0-9 point scale: 3 (2×) and 4
[21]
  injury on a 0-9 point scale: 0
[22]
  injury on a 0-9 point scale: 5
[23]
  injury on a 0-9 point scale: 4
Soybean T2, transgene R128A_F420V, 200 g ai/ha + 1% v/v MSO
  injury on a 0-9 point scale: 4 and 5
[24]
  injury on a 0-9 point scale: 9
[25]
  injury on a 0-9 point scale: 9
[26]
  injury on a 0-9 point scale: 9
[27]
  injury on a 0-9 point scale: 9

## C#CCOC(=O)C(OC)Oc1cc(-c2ncc(C(F)(F)F)cc2Cl)c(F)cc1Cl (stereo not shown) [prop-2-ynyl 2-[2-chloro-5-[3-chloro-5-(trifluoromethyl)-2-pyridyl]-4-fluoro-phenoxy]-2-methoxy-acetate]
[1]
  injury on a 0-9 point scale: 1 and 0 and 9
[2]
  injury on a 0-9 point scale: 0 (2×) and 1
[3]
  injury on a 0-9 point scale: 1
[4]
  injury on a 0-9 point scale: 3 (2×) and 4
[5]
  injury on a 0-9 point scale: 0
[6]
  injury on a 0-9 point scale: 2 and 1 and 0
[7]
  injury on a 0-9 point scale: 1 and 2 (2×)
[8]
  injury on a 0-9 point scale: 1 (2×) and 2
[9]
  injury on a 0-9 point scale: 0
[10]
  injury on a 0-9 point scale: 2 and 3 and 4
[11]
  injury on a 0-9 point scale: 5
[12]
  injury on a 0-9 point scale: 5 (2×) and 4
[13]
  injury on a 0-9 point scale: 0
[14]
  injury on a 0-9 point scale: 2 (2×) and 3
[15]
  injury on a 0-9 point scale: 4 (2×) and 5
[16]
  injury on a 0-9 point scale: 5
[17]
  injury on a 0-9 point scale: 0
[18]
  injury on a 0-9 point scale: 2
[19]
  injury on a 0-9 point scale: 1
[20]
  injury on a 0-9 point scale: 3 and 4
[21]
  injury on a 0-9 point scale: 2
[22]
  injury on a 0-9 point scale: 4 (2×) and 5
[23]
  injury on a 0-9 point scale: 4
[24]
  injury on a 0-9 point scale: 9
[25]
  injury on a 0-9 point scale: 9
[26]
  injury on a 0-9 point scale: 9
[27]
  injury on a 0-9 point scale: 9
